Source: the supplement of paper PMC13380429
± gives the standard deviation of the averaged measurements.

Legend:
Conditions in all cases: 72 h
[1] = tested on: HepG2; assay: drug sensitivity score (DSS) for viability; higher = more toxic; extreme values may be limits of the assay
[2] = tested on: Vero E6; assay: as above
[3] = tested on: Caco-2; assay: as above
[4] = tested on: Calu-3; assay: as above
[5] = tested on: U2OS; assay: as above
[6] = tested on: HepG2; assay: cell viability relative to DMSO; higher = less toxic
[7] = tested on: Vero E6; assay: as above
[8] = tested on: Caco-2; assay: as above
[9] = tested on: Calu-3; assay: as above
[10] = tested on: U2OS; assay: as above
[11] = tested on: HepG2; assay: relative viability EC50 (midpoint between 100% and the lowest measured viability); higher = less toxic
[12] = tested on: Vero E6; assay: as above
[13] = tested on: Caco-2; assay: as above
[14] = tested on: Calu-3; assay: as above
[15] = tested on: U2OS; assay: as above

| SMILES | drug sensitivity score [1] | drug sensitivity score [2] | drug sensitivity score [3] | drug sensitivity score [4] | drug sensitivity score [5] | cell viability ([6]; 1 nM) | cell viability ([6]; 10 nM) | cell viability ([6]; 100 nM) | cell viability ([6]; 1000 nM) | cell viability ([6]; 10000 nM) | cell viability ([7]; 1 nM) | cell viability ([7]; 10 nM) | cell viability ([7]; 100 nM) | cell viability ([7]; 1000 nM) | cell viability ([7]; 10000 nM) | cell viability ([8]; 1 nM) | cell viability ([8]; 10 nM) | cell viability ([8]; 100 nM) | cell viability ([8]; 1000 nM) | cell viability ([8]; 10000 nM) | cell viability ([9]; 1 nM) | cell viability ([9]; 10 nM) | cell viability ([9]; 100 nM) | cell viability ([9]; 1000 nM) | cell viability ([9]; 10000 nM) | cell viability ([10]; 1 nM) | cell viability ([10]; 10 nM) | cell viability ([10]; 100 nM) | cell viability ([10]; 1000 nM) | cell viability ([10]; 10000 nM) | relative viability EC50 [11] | relative viability EC50 [12] | relative viability EC50 [13] | relative viability EC50 [14] | relative viability EC50 [15] |
| --- | --- | --- | --- | --- | --- | --- | --- | --- | --- | --- | --- | --- | --- | --- | --- | --- | --- | --- | --- | --- | --- | --- | --- | --- | --- | --- | --- | --- | --- | --- | --- | --- | --- | --- | --- |
| C#C[C@]1(OC(C)=O)CC[C@H]2[C@@H]3CCC4=CC(=NO)CC[C@@H]4[C@H]3CC[C@@]21CC (mixture of isomers) [norgestimate] | 0 | 0 | 0 | 0 | 0 | 108% | 97.6% | 107% | 91.3% | 111% | 99% | 94% | 99.2% | 99.6% | 102% | 98.3% | 87.7% | 73.4% | 93% | 92.4% | 98.6% | 104% | 102% | 106% | 104% | 97% | 104% | 94.3% | 99.6% | 96.2% | > 10 µM | > 10 µM | > 10 µM | > 10 µM | > 10 µM |
| CN(C)CCC=C1c2ccccc2C=Cc2ccccc21 [cyclobenzaprine] | 0 | 0 | 0 | 0 | 0 | 111% | 97.9% | 104% | 113% | 103% | 100% | 99.6% | 92.2% | 107% | 101% | 102% | 108% | 101% | 98.8% | 114% | 98.8% | 99.3% | 94.8% | 99% | 101% | 102% | 98.4% | 103% | 101% | 104% | > 10 µM | > 10 µM | > 10 µM | > 10 µM | > 10 µM |
| c1ccc(C2CN3CCSC3=N2)cc1 (stereo not given) [tetramisole] | 0 | 0 | 0.85 ± 1.2 | 0 | 0 | 101.9 ± 0.14% | 95.6 ± 0.57% | 96.2 ± 3.5% | 93.1 ± 5.7% | 100 ± 4.2% | 93.8 ± 2.8% | 98.5 ± 1.6% | 96.2 ± 3.3% | 96.8 ± 0.57% | 101 ± 1.1% | 95 ± 7.1% | 102 ± 11% | 92.65 ± 0.78% | 91.9 ± 8.6% | 96.5 ± 1.7% | 98.7 ± 5% | 97.85 ± 0.92% | 99.7 ± 1.3% | 110 ± 12% | 94.7 ± 1.6% | 99.8 ± 1.8% | 98.2 ± 2.3% | 98.3 ± 1.8% | 97.9 ± 1.1% | 100 ± 6.9% | > 10 µM | > 10 µM | > 10 µM | > 10 µM | > 10 µM |
| COc1nc(C)cnc1NS(=O)(=O)c1cccnc1-c1ccc(-c2nnco2)cc1 [zibotentan] | 0 | 0 | 0 | 0 | 0 | 99.8% | 98% | 102% | 101% | 107% | 102% | 96.5% | 94.4% | 99.3% | 102% | 104% | 95.2% | 94.9% | 101% | 94.9% | 105% | 102% | 98.9% | 104% | 111% | 95.7% | 99.4% | 97.7% | 103% | 105% | > 10 µM | > 10 µM | > 10 µM | > 10 µM | > 10 µM |
| CC(C)(O)CC(=O)O [beta-hydroxy-beta-methylbutyrate] | 0 | 0 | 0 | 0 | 0 | 91.8% | 94.3% | 101% | 104% | 93.3% | 106% | 108% | 101% | 99.5% | 100% | 102% | 92.2% | 99.4% | 92.6% | 97.2% | 98.7% | 100% | 105% | 102% | 113% | 105% | 99.5% | 98.1% | 95.9% | 99.5% | > 10 µM | > 10 µM | > 10 µM | > 10 µM | > 10 µM |
| O.O=[Si]=O.O=[Si]=O.O=[Si]=O.O=[Si]=O.[O]=[Mg].[O]=[Mg].[O]=[Mg] [Talc] | 0 | 0 | 0 | 0.2 | 0 | 106% | 95.1% | 106% | 95.4% | 96.7% | 95.7% | 104% | 103% | 97% | 103% | 97.2% | 102% | 94.7% | 101% | 90% | 87% | 98.1% | 89.8% | 107% | 81.3% | 96.7% | 98.3% | 95.9% | 100% | 95.3% | > 10 µM | > 10 µM | > 10 µM | > 10 µM | > 10 µM |
| NC(=O)OCC(O)COc1ccc(Cl)cc1 (stereo not given) [chlorphensin-carbamate] | 0 | 0 | 0 | 0 | 0 | 91.7% | 97% | 100% | 100% | 100% | 110% | 95.5% | 105% | 96.5% | 103% | 100% | 109% | 92% | 117% | 93.3% | 92.6% | 96.3% | 91.6% | 85.5% | 94.2% | 99.6% | 99% | 96.3% | 98.2% | 94.3% | > 10 µM | > 10 µM | > 10 µM | > 10 µM | > 10 µM |
| O=C1c2ccccc2C(=O)C1c1ccc(Cl)cc1 [chlorindione] | 0 | 0 | 0 | 0 | 0 | 96.8% | 108% | 106% | 111% | 122% | 95.1% | 95.2% | 90.3% | 93.6% | 108% | 94.5% | 84.3% | 104% | 95.2% | 106% | 103% | 103% | 99.5% | 106% | 99.7% | 99.5% | 93.8% | 105% | 97.4% | 95.4% | > 10 µM | > 10 µM | > 10 µM | > 10 µM | > 10 µM |
| O=C(N[C@H]1CN2CCC1CC2)c1ccc2c(c1)OCCO2 | 0 | 0 | 0 | 0 | 0 | 101% | 93% | 108% | 97.7% | 94.6% | 100% | 89.3% | 97.2% | 91.3% | 107% | 93.6% | 95.2% | 87.5% | 101% | 99.1% | 93.6% | 98.3% | 102% | 102% | 99.3% | 98.8% | 94.8% | 97.8% | 95.3% | 97.2% | > 10 µM | > 10 µM | > 10 µM | > 10 µM | > 10 µM |
| CC(=O)[C@H]1CC[C@H]2[C@@H]3CC[C@H]4C[C@H](O)CC[C@]4(C)[C@H]3CC[C@]12C [allopregnanolone] | 0 | 0 | 0 | 0 | 0 | 98.9 ± 6.8% | 92.4 ± 6.1% | 97.6 ± 7.2% | 99 ± 2.6% | 92 ± 3.5% | 95.5 ± 3.5% | 101 ± 4.5% | 95 ± 3.5% | 97.9 ± 4.7% | 98.8 ± 4.5% | 98 ± 0.85% | 96.6 ± 1.1% | 96.2 ± 8.3% | 100 ± 3% | 103 ± 7.4% | 104 ± 5.9% | 102 ± 5.4% | 95.05 ± 0.64% | 104 ± 5.8% | 103 ± 3.8% | 98.8 ± 4.2% | 99.65 ± 0.92% | 98.55 ± 0.35% | 100 ± 5% | 97.7 ± 0.28% | > 10 µM | > 10 µM | > 10 µM | > 10 µM | > 10 µM |
| O=C(O)CCCC[C@@H]1SC[C@@H]2NC(=O)N[C@@H]21 [biotin] | 0 | 0 | 0.1 | 0 | 0 | 111% | 101% | 108% | 97.4% | 104% | 106% | 66.8% | 105% | 59.3% | 106% | 95.8% | 96.3% | 101% | 95.1% | 89.3% | 93.8% | 105% | 98% | 102% | 97.6% | 99.2% | 101% | 97.7% | 101% | 97.8% | > 10 µM | > 10 µM | > 10 µM | > 10 µM | > 10 µM |
